Results as given in patent publication US8865700B2, “Collagen stimulators and their use in the treatment of skin” (Avon Products, Inc., priority 2012, dated 2014).

Test system: Normal Human dermal fibroblasts
Assay: Procollagen assay (Procollagen Type-I C-Peptide EIA) in conditioned media of treated fibroblasts
Format: cell-based
Conditions: 0.0005% compound, 48 hours, ELISA, p<0.05
Procedure: Normal Human dermal fibroblasts were grown in DMEM (Mediatech; cat. #: 15-013-CV) containing 10% Fetal Bovine Serum (Perbio; cat. #: SH30070.03), Penicillin/Streptomycin (Mediatech, Cat #30-001-C1), L-Glutamine (Mediatech; cat. #: 25-005-CI) at 37° C. and 10% CO2. Cells were stripped of serum overnight, followed by treatment with the compound of Formula I(b) (0.0005%) or vehicle (DMSO), in the absence of serum for 48 hours.
Reading was measured at 450 nm using a spectrophotometer.
Human dermal fibroblasts treated with 0.0005% the compound of Formula I(b) for 48 hours were analyzed by ELISA for expression levels of pro-collagen. […] All values are statistically significant at p<0.05.

For N#Cc1cccc(CN2CCNC(=O)CC2c2nccs2)c1 (centres unmarked) [Formula I(b)], the Procollagen (serum-free, relative to vehicle (DMSO) control = 100%, 450 nm) was 146% and the “pro-collagen expression level relative to control, vehicle treated cells” value was “significant increase”.
